Laboratory results from patent EP4471048A1, “PEPTIDE INHIBITORS OF INTERLEUKIN-23 RECEPTOR” (Zealand Pharma A/S, priority 2023, dated 2024).
Read-outs that look alike come from different tables or passages of the source. *1 amine or outer side, *2 acyl side, *3 side chain or, on linkers, in order; H or OH if unused. Where a SMILES comes first, the peptide text is derived from it. Bridges are numbered along the chain shown (N, C = ends). [ ]: non-standard residue; d: D form. 2Nal = N[C@@H](Cc1ccc2ccccc2c1)C(=O)O; AEF = NCCOc1ccc(C[C@H](N)C(=O)O)cc1; X1 = O=C(Cc1ccc(CN[*:1])cc1)[*:2]; 3Pal = N[C@@H](Cc1cccnc1)C(=O)O; αMeL = CC(C)C[C@](C)(N)C(=O)O; CH2COCH2 = O=C(C[*:1])C[*:2]; 3Amb = NCc1cccc(C(=O)O)c1; Dab = NCC[C@H](N)C(=O)O

Assays:
human IL-23R = molecular target: T1, human IL-23R (Homo sapiens, UniProt Q5VWK5); test: biochemical
T1 sequence (Q5VWK5 22-629): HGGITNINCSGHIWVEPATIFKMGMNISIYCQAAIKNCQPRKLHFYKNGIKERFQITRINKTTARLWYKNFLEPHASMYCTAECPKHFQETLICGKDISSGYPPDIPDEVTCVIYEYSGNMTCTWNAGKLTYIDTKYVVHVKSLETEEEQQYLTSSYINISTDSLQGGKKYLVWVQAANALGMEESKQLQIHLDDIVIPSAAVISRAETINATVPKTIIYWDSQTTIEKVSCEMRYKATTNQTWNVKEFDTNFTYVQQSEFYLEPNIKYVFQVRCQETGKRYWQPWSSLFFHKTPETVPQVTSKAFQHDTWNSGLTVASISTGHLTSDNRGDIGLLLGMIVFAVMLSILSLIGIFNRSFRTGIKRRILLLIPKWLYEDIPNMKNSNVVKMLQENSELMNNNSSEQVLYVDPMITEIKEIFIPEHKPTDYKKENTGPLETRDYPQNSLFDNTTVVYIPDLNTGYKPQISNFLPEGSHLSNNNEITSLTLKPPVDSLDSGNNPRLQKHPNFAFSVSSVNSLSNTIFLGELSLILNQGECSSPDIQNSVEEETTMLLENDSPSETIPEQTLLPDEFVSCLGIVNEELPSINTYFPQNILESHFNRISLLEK
Procedure, shortened: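 BRET displacement of a TAMRA-labelled reference compound from N-terminal Nanoluc-IL-23R fusion protein in membranes from stably transfected HEK293 cells. Incubation 2 h at room temperature, then Nanoluc substrate was added and the TAMRA/Nanoluc ratio read. IC50 and maximal displacement came from 4-parameter logistic fits.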

[1] = molecular target: IL-23 mediated signalling (Homo sapiens, UniProt Q5VWK5); test: Functional inhibition of IL-23 mediated STAT3 signalling (phospho-STAT3 MSD) in DB cells; assay type: cell-based; details: for Emax: read-out: hIL-23 (pSTAT3) antagonist % inhibition
Procedure, shortened: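 DB cells preincubated with inhibitor 15 min at 37 °C, then stimulated 90 min with EC80 human IL-23; lysate phospho-STAT3 measured by MSD electrochemiluminescence. Signal normalized to IL-23-alone and buffer controls; IC50 and maximal % inhibition from 4-parameter logistic fit.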

[2] = Peptide stability in simulated intestinal fluid (SIF); assay type: in vitro ADME; details: 37 °C, porcine pancreatin; for remaining at 1 h, 10 µM / remaining at 4 h, 10 µM: pig
Procedure, shortened: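 Peptides were incubated at 37 °C with gentle shaking in pH 6.8 potassium phosphate SIF containing porcine pancreatin (10 g/L). Supernatants were analysed by LC-HRMS. Percent remaining at each timepoint, including 4 h, was calculated relative to time zero from absolute peak areas.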

[3] = Peptide stability in simulated gastric fluid (SGF); assay type: in vitro ADME; details: for remaining at 1 h, 10 µM / remaining at 4 h, 10 µM: pig
Procedure, shortened: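 Peptide incubated at 37 °C with gentle shaking in SGF (NaCl, pH 1.2). Samples centrifuged, diluted and analysed by LC-HRMS; percent remaining at each timepoint from absolute peak areas relative to time zero, with 4 h as the reference point.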

[4] = Table 3-2, maximal inhibitory response, DB cells, hIL-23 at EC80
[5] = simulated gastric fluid (SGF) with porcine pepsin (3.2 g/L), pH 1.2, 10 µM, 37 °C, porcine pepsin, pH 1.2, 1 h, read-out: SGF (% remaining 1 h)
[6] = Table 3-2, DB cells, hIL-23 at EC80, read-out: hIL-23 (pSTAT3) antagonist IC50
[7] = pH 6.8, 4 h, read-out: SIF (% remaining 4 h)
[8] = simulated gastric fluid (SGF) with porcine pepsin (3.2 g/L), pH 1.2, 10 µM, 37 °C, porcine pepsin, pH 1.2, 4 h, read-out: SGF (% remaining 4 h)

% displacement (hIL-23R NIuc) (human IL-23R) [%]	IC50 (human IL-23R) [nM]	Emax [1, 4] [%]	remaining at 1 h, 10 µM ([2]; pH 6.8, 1 h) [%]	remaining at 1 h, 10 µM [3, 5] [%]	Ki (human IL-23R) [nM]	IC50 [1, 6] [nM]	remaining at 4 h, 10 µM [2, 7] [%]	remaining at 4 h, 10 µM [3, 8] [%]	Structure (SMILES)	further results
95	0.049	101	76	120	–	–	–	–	CC[C@H](C)[C@@H]1NC(=O)[C@@H]2CCCCNC(=O)CC[C@@H](C(=O)N[C@@H](CCN)C(=O)N[C@@H](Cc3cccnc3)C(=O)NC)NC(=O)[C@](C)(CC(C)C)NC(=O)[C@H](Cc3ccc4ccccc4c3)NC(=O)[C@H](Cc3ccc(OCCN)cc3)NC(=O)[C@H](CCC(=O)N2)NC(=O)[C@H](CCC(N)=O)NC(=O)[C@H](Cc2c[nH]c3ccccc23)NC(=O)[C@H](C(C)C)NC1=O [Compound 60, K(1c)(6c)^†IVWQE(6c)[Y(2-aminoethoxy)][2-Nal][2-Me-Leu]E(1c)[Dab][3-(3-Pyridyl)-Ala]-[NHMe]]	SIF (% remaining 4 h) ([2]; 10 µM, pH 6.8, 4 h): 71%; SIF (% after 4 h) ([2]; SAR tables, % peptide remaining, 10 µM, pH 6.8, 4 h): 71%; remaining at 4 h, 10 µM ([2]; SAR tables, % peptide remaining, pH 6.8, 4 h, read-out: SIF (% after 4 h)): 71%; SGF (% after 4 h) ([3]; SAR tables, % peptide remaining, 10 µM, 37 °C, porcine pepsin, pH 1.2, 4 h): 109%; remaining at 4 h, 10 µM ([3]; simulated gastric fluid (SGF) with porcine pepsin (3.2 g/L), pH 1.2, SAR tables, % peptide remaining, 10 µM, 37 °C, porcine pepsin, pH 1.2, 4 h, read-out: SGF (% after 4 h)): 109%
103	12	89	0	2	9.87	45	0	1	CC(C)C[C@@H]1NC(=O)[C@H](Cc2ccc3ccccc3c2)NC(=O)[C@H](Cc2c[nH]c3ccccc23)NC(=O)[C@@H]2CSCC(=O)CSC[C@H](NC(=O)[C@H](CO)NC(=O)c3cccc(c3)CNC(=O)CC[C@@H](C(=O)N[C@@H](CCCNC(=N)N)C(N)=O)NC1=O)C(=O)N[C@@H](Cc1c[nH]c3ccccc13)C(=O)N[C@@H](CCC(N)=O)C(=O)N2 [Ref 37, [(3-Aminomethyl)benzoyl](1c)*SC(2a)WQC(2a)W[2-Nal]LE(1c)R-[NH2], reference compound] ([3Amb]SCWQCW[2Nal]LER-NH2; linker 3-6 via CH2COCH2; lactam N-10)	–
110	2.8	99	83	93	2.31	29	79	87	CC(C)C[C@]1(C)NC(=O)[C@H](Cc2ccc3ccccc3c2)NC(=O)[C@H](Cc2ccc(OCCN)cc2)NC(=O)[C@@H]2CSCC(=O)CSC[C@H](NC(=O)[C@H](CO)NC(=O)c3cccc(c3)CNC(=O)CC[C@@H](C(=O)N[C@H](CCCNC(=N)N)C(N)=O)NC1=O)C(=O)N[C@@H](Cc1c[nH]c3ccccc13)C(=O)N[C@@H](CCC(N)=O)C(=O)N2 [Ref 41, [(3-Aminomethyl)benzoyl](1c)*SC(2a)WQC(2a)[Y(2-aminoethoxy)][2-Nal][2-Me-Leu]E(1c)[{d}R]-[NH2], reference compound] ([3Amb]SCWQC[AEF][2Nal][αMeL]E[dR]-NH2; linker 3-6 via CH2COCH2; lactam N-10)	–
101	0.39	95	99	–	0.318	21	77	–	CC(C)C[C@]1(C)NC(=O)[C@H](Cc2ccc3ccccc3c2)NC(=O)[C@H](Cc2ccc(OCCN)cc2)NC(=O)[C@@H]2CSCC(=O)CSC[C@H](NC(=O)[C@H](CO)NC(=O)Cc3ccc(cc3)CNC(=O)CC[C@@H](C(=O)N[C@@H](CO)C(N)=O)NC1=O)C(=O)N[C@@H](Cc1c[nH]c3ccccc13)C(=O)N[C@@H](CCC(N)=O)C(=O)N2 [Ref 81, [4-Aminomethyl-phenylacetyl](1c)*SC(2a)WQC(2a)[Y(2-aminoethoxy)][2-Nal][2-Me-Leu]E(1c)S-[NH2], reference compound]	–

Further lines, the compound ahead of its results:

Structure (SMILES)	% displacement (hIL-23R NIuc) (human IL-23R) [%]	IC50 (human IL-23R) [nM]	Emax [1, 4] [%]	remaining at 1 h, 10 µM ([2]; pH 6.8, 1 h) [%]	remaining at 1 h, 10 µM [3, 5] [%]	Ki (human IL-23R) [nM]	IC50 [1, 6] [nM]	remaining at 4 h, 10 µM [2, 7] [%]	remaining at 4 h, 10 µM [3, 8] [%]	further results
CC(=O)N[C@@H](CC(=O)O)C(=O)N[C@H]1CCC(=O)NCCCC[C@@H](C(=O)N[C@@H](CCCNC(=N)N)C(N)=O)NC(=O)[C@H](CC(C)C)NC(=O)[C@H](Cc2ccc3ccccc3c2)NC(=O)[C@H](Cc2c[nH]c3ccccc23)NC(=O)[C@@H]2CSCC(=O)CSC[C@H](NC(=O)[C@H](CO)NC1=O)C(=O)N[C@@H](Cc1c[nH]c3ccccc13)C(=O)N[C@@H](CCC(N)=O)C(=O)N2 [Ref 17, [Ac]-DE(1c)SC(2a)WQC(2a)W[2-Nal]LK(1c)R-[NH2], reference compound]	–	87	–	0	0	70.7	370	0	0	–
CC(C)C[C@@H]1NC(=O)[C@H](Cc2c[nH]c3ccccc23)NC(=O)[C@H](Cc2c[nH]c3ccccc23)NC(=O)[C@@H]2CSCC(=O)CSC[C@H](NC(=O)[C@H](CO)NC(=O)[C@@H](NC(=O)[C@@H](N)CC(=O)O)CCC(=O)NCCCC[C@@H](C(=O)N[C@@H](CCCNC(=N)N)C(N)=O)NC1=O)C(=O)N[C@@H](Cc1c[nH]c3ccccc13)C(=O)N[C@@H](CCC(N)=O)C(=O)N2 [Ref 4, H-DE(1c)SC(2a)WQC(2a)WWLK(1c)R-[NH2], reference compound] (HELM PEPTIDE1{D.E.S.C.W.Q.C.W.W.L.K.R.[am]}|CHEM1{[O=C(C[*:1])C[*:2]]}$PEPTIDE1,PEPTIDE1,2:R3-11:R3|PEPTIDE1,CHEM1,4:R3-1:R1|PEPTIDE1,CHEM1,7:R3-1:R2$$$V2.0)	100	180	87	0	1	143	850	0	0	–
CC(C)C[C@@H]1NC(=O)[C@H](Cc2c[nH]c3ccccc23)NC(=O)[C@H](Cc2c[nH]c3ccccc23)NC(=O)[C@@H]2CSCC(=O)CSC[C@H](NC(=O)[C@H]([C@@H](C)O)NC(=O)[C@@H](NC(=O)CN)CSCC(=O)CSC[C@@H](C(=O)N[C@@H](CO)C(N)=O)NC1=O)C(=O)N[C@@H](Cc1c[nH]c3ccccc13)C(=O)N[C@@H](CCC(=O)O)C(=O)N2 (single isomer, unassigned) [I1 (isomer 3), H-GC(1a)TC(2a)WEC(2a)WWLC(1a)S-[NH2], reference compound]	–	130	–	–	–	104	–	–	–	IC50 [1]: > 1000 nM; Emax ([1]; DB): 83%; SIF (% remaining 1 h) ([2]; 10 µM, pH 6.8, 1 h): 0%; SIF (% remaining 4 h) ([2]; 10 µM, pH 6.8, 4 h): 0%; SGF (% remaining 1 h) ([3]; 10 µM, 37 °C, porcine pepsin, pH 1.2, 1 h): 92%; SGF (% remaining 4 h) ([3]; 10 µM, 37 °C, porcine pepsin, pH 1.2, 4 h): 94%
CC(C)C[C@]1(C)NC(=O)[C@H](Cc2ccc3ccccc3c2)NC(=O)[C@H](Cc2ccc(OCCN)cc2)NC(=O)[C@@H]2CSCC(=O)CSC[C@H](NC(=O)[C@H](CO)NC(=O)Cc3ccc(cc3)CNC(=O)CC[C@@H](C(=O)N[C@@H](CCN)C(=O)N[C@@H](Cc3cccnc3)C(N)=O)NC1=O)C(=O)N[C@@H](Cc1c[nH]c3ccccc13)C(=O)N[C@@H](CCC(N)=O)C(=O)N2 [Ref 120, [4-Aminomethyl-phenylacetyl](1c)*SC(2a)WQC(2a)[Y(2-aminoethoxy)][2-Nal][2-Me-Leu]E(1c)[Dab][3-(3-Pyridyl)-Ala]-[NH2], reference compound] ([X1]SCWQC[AEF][2Nal][αMeL]E[Dab][3Pal]-NH2; linker 3-6 via CH2COCH2; lactam N-10)	94	0.011	101	82	–	0.00938	–	39	–	IC50 [1]: 0.054 nM; remaining at 1 h, 10 µM ([3]; simulated gastric fluid, pH 1.2, SGF (% remaining 1 h)): 84%; remaining at 4 h, 10 µM ([3]; simulated gastric fluid, pH 1.2, SGF (% remaining 4 h)): 81%
